In patent publication US20160374352A1, “BOTANICAL ANTIMICROBIAL COMPOSITIONS” (The Trustees of Columbia University in the City of, priority 2015, published 2016):

Experiments:
[1] = tested on: S. aureus; experiment: Method B: surface disinfectant base solution diluted 1:20, 1 minute (Table 8); type: cell-based; details: stock solution in surface disinfectant base diluted 1:20, 1 minute (Method B)
[2] = tested on: P. aeruginosa; experiment: Example 9: phenoxyethanol, PCMX, pine oil compositions diluted 1:20, albumin, 15 seconds (Table 3); type: cell-based; details: PXE stock 10.0% w/w, 0.5% w/w in 1 to 20 dilution
Procedure: Phenoxyethanol, PCMX and pine oil were added to 50% isopropanol in the amounts described in table 3 below (water was added to bring the total weight % of the composition 100%). The compositions described by table 3 were prepared and diluted 1:20 with water and tested using the following method. P. aeruginosa was used as the test organism (10^8 cfu/ml). 0.1 ml culture was added to 0.1 ml of a 3.0% albumin solution, mixed for 5 seconds and left for 2 minutes at room temperature. 0.8 ml of test sample was added and the tube was vortexed for 15 seconds. Serial dilutions were made with Drug Neutralizing Fluid and aliquots were plated on Trypticase soy broth agar plates. The plates were incubated for 24-48 hours and colony counts were then determined.

[3] = oral rinses of WO/2014/092999; cited from earlier work

Row | Compound | synergistic activity with thymol and vanilla extract [3] | other results
1 | Cc1cc(O)cc(C)c1Cl [PCMX] |  | log reduction from control growth [1]: 0.5 log
2 | OCCOc1ccccc1 [PXE] |  | Log reduction from control [2]: 0.6 log
3 | [H]/N=C(\N/C(=N/[H])NCCCCCCNC(=N)NC(=N)Nc1ccc(Cl)cc1)Nc1ccc(Cl)cc1 [chlorhexidine] | did not show significant synergistic activity | 
4 | polyhexamethylene biguanide [PHMB] | synergistic activity | 
